SMILES strings stand for the structures. Some results are limits rather than exact numbers.

The target of this assay is T1, IKKβ (Homo sapiens, UniProt O14920).
T1 construct: His; made in house; host or cells: SF9 insect cells (baculovirus, pVL1393 transfer vector)
T1 sequence (O14920 1-756): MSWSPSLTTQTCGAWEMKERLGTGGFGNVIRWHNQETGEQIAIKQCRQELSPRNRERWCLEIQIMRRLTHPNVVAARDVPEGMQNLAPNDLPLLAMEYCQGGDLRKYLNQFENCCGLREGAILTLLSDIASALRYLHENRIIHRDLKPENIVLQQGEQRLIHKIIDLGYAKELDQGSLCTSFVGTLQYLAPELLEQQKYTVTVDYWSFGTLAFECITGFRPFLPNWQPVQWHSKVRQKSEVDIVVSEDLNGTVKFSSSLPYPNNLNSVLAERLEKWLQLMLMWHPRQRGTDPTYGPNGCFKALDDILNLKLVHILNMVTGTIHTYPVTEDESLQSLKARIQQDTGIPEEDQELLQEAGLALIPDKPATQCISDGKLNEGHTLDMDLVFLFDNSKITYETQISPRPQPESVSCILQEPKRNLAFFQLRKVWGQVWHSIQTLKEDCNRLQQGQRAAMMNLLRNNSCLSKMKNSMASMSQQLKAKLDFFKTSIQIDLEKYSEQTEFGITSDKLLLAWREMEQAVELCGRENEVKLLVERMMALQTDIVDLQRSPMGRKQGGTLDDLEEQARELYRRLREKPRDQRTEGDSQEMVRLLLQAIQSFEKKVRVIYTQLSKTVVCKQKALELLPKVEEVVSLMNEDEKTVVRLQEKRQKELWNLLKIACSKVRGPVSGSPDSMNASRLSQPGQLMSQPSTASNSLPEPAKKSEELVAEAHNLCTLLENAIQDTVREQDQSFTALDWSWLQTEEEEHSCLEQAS
In words: Homogenous Time Resolved Fluorescence (HTRF) assay for IKK inhibitory activity. It counts as biochemical. The note with it: read-out: IKKβIC50. The text has this: Homogenous Time Resolved Fluorescence (HTRF) Assay for IKK Inhibitory Activity.
This enzyme assay monitors the inhibitory potency of the compounds of Formula I and II to block the catalytic activity of IKKα and IKKβ in vitro. The full-length coding sequences of IKKα and IKKβ are subcloned into the appropriate site of pVL1393 (Pharmingen) to construct a baculovirus transfer vector. Recombinant baculovirus was generated from vector-transfected SF9 cells (BaculoGold™, Invitrogen), cloned, amplified and used to infect SF9 cells for protein production. Recombinant His-tagged IKKα and IKKβ are isolated from the Baculovirus-infected SF9 cells expressing the fusion protein.
An HTRF assay in a 384-well format established on a Biomek FX is used to test the inhibitory activity of compounds of Formula I. The peptide substrate, biotin-DRHDSGLDSMKDE (SEQ. ID.: 1) used to assay IKKβ activity spans residues 28 to 40 of IκBα and was custom synthesized (Synpep). A biotinylated peptide that spans residues 21 to 40 of Iκbα, […] (SEQ. ID.: 2), was used as substrate for IKKα. The assay conditions used to test inhibitory activity of compounds against IKKβ comprises 110 nM recombinant enzyme, 150 nM peptide substrate, 6 μM ATP, 10% (v/v) DMSO, 15 mM MgCl2, 2 mM DTT, and 50 mM Tris/HCl at a pH of 7.5. For IKKα, the reaction mixture comprises 125 nM recombinant enzyme, 400 nM peptide substrate, 6 μM ATP, 10% (v/v) DMSO, 15 mM MgCl2, 2 mM DTT, and 50 mM Tris/HCl at a pH of 7.5. The kinase reaction proceeds for 20 and 35 min for IKKα and IKKβ respectively and then it is quenched by the addition of EDTA to a final concentration of 20 mM. Following completion of the kinase assay, 5 μL of the reaction is quantified by HTRF with a 5 μL detection mix comprising 40 mM HEPES, 100 mM KF, 27.7 nM Streptavidin-tagged-XL665-XLent (CIS-Bio international), 0.3 nM anti-phospho-IκBα mAb (Cell signaling), 1 nM anti-phospho peptide antibody conjugated to Eu (CIS-Bio international). Following excitation at 330 nm, the 665 nm/615 nm emission ratio is measured after a 2-hour incubation at room temperature to quantify the FRET signal.
With `NC(=O)c1cnc(N)c2c1sc1c(-c3ccccc3)cccc12` [Example 4, 1-Amino-6-phenyl[1]benzothieno[3,2-c]pyridine-4-carboxamide], the IC50 was ≤ 1000 nM.
Next, `NC(=O)c1cnc(N)c2c1[nH]c1cc(C(F)(F)F)ccc12` [Example 5, 1-Amino-7-(trifluoromethyl)-5H-pyrido[4,3-b]indole-4-carboxamide]: ≤ 100 nM.
For the compound `CCCCNc1ncc(C(N)=O)c2[nH]c3ccc(F)cc3c12` [Example 8, 1-(Butylamino)-8-fluoro-5H-pyrido[4,3-b]indole-4-carboxamide], the IC50 is ≤ 1000 nM.
Next, `CN(C)Cc1ccc(-c2ccc3c(c2)sc2c(C(N)=O)cnc(N)c23)cc1` [Example 21, 1-Amino-7-{4-[(dimethylamino)methyl]phenyl}[1]benzothieno[3,2-c]pyridine-4-carboxamide]: ≤ 500 nM.
Next, `NC(=O)c1cnc(N)c2c1sc1c(Cl)cccc12` [Example 3, 1-Amino-6-chloro[1]benzothieno[3,2-c]pyridine-4-carboxamide]: ≤ 1000 nM.
In the case of `NC(=O)c1cnc(N)c2c1sc1cc(/C=C/c3ccc(F)cc3)ccc12` [Example 16, 1-Amino-7-[(E)-2-(4-fluorophenyl)vinyl][1]benzothieno[3,2-c]pyridine-4-carboxamide], the IC50 is ≤ 500 nM.
For `NC(=O)c1cnc(N2CCC3(CC2)OCc2ccccc23)c2c1[nH]c1ccc(F)cc12` [Example 9, 8-Fluoro-1-(1′H,3H-spiro[2-benzofuran-1,4′-piperidin]-1′-yl)-5H-pyrido[4,3-b]indole-4-carboxamide] the value was ≤ 500 nM; for `NC(=O)c1cnc(N)c2c1[nH]c1ccc(Br)cc12` [Example 11, 1-Amino-8-bromo-5H-pyrido[4,3-b]indole-4-carboxamide], ≤ 1000 nM.
With `NC(=O)c1cnc(N)c2c1[nH]c1c(Cl)cccc12` [Example 25, 1-Amino-6-chloro-5H-pyrido[4,3-b]indole-4-carboxamide], the IC50 was ≤ 100 nM.
Next, `NC(=O)c1cnc(N)c2c1[nH]c1ccc(F)cc12` [Example 6, 1-Amino-8-fluoro-5H-pyrido[4,3-b]indole-4-carboxamide]: ≤ 1000 nM.

The values are drawn from US8518964B2, “Tricyclic compounds useful as inhibitors of kinases” (Merck Sharp & Dohme Corp., priority 2006, dated 2013).
